# Measured values published in US20180256557A1, “PHARMACEUTICAL COMBINATION COMPRISING (A) THE ALPHA-ISOFORM SPECIFIC PI3K INHIBITOR ALPELISIB (BYL719) AND (B) AN AKT INHIBITOR, PREFERABLY MK-2206, AFURESERTIB OR UPROSERTIB, AND THE USE THEREOF IN THE TREATMENT/PREVENTION OF CANCER” (priority 2015, published 2018).
# Key:
# Format in all cases: cell-based
# [1] = system: RKO colorectal cancer cell line; assay: Cell proliferation, cell count by microscopy; settings: single agent; RKO (BRAF, PIK3CA); 72 h treatment
# Protocol: (§1) COMPOUNDS A and B were dissolved in 100% DMSO (Sigma, Catalog number D2650) at concentrations of 20 mM and stored at −20° C. until use. Compounds were arrayed in drug master plates (Greiner, Catalog number 788876) and serially diluted 3-fold (7 steps) at 2000× concentration.
# (§2) Colorectal cancer cell lines used for this study were obtained, cultured and processed from commercial vendors ATCC, CellBank Australia, DSMZ, ECACC, HSRRB, and RIKEN (Table 1). All cell line media were supplemented with 10% FBS (HyClone, Catalog number SH30071.03). Media for LIM2405 and LIM2551 was additionally supplemented with 0.6 μg/mL Insulin (SIGMA, Catalog number 19278), 1 μg/mL Hydrocortisone (SIGMA, Catalog number H0135), and 10 μM 1-Thioglycerol (SIGMA, Catalog number M6145).
# (§3) Cell lines were cultured in 37° C. and 5% CO2 incubator and expanded in T-75 flasks. In all cases cells were thawed from frozen stocks, expanded through ≥1 passage using 1:3 dilutions, counted and assessed for viability using a ViCell counter (Beckman-Coulter) prior to plating. To split and expand cell lines, cells were dislodged from flasks using 0.25% Trypsin-EDTA (GIBCO, Catalog number 25200). All cell lines were determined to be free of mycoplasma contamination as determined by a PCR detection methodology performed at Idexx Radil (Columbia, Mo., USA) and correctly identified by detection of a panel of SNPs.
# (§4) To test the effect of the combination of COMPOUND A and COMPOUND B on cell proliferation cells were plated in black 384-well microplates with clear bottom (Matrix/Thermo Scientific, Catalog number 4332) in 50 μL media per well at cell densities between 500 and 1250 cells/well (Table 1) and allowed to incubate at 37 degrees, 5% CO2 for 24 h. After 24 h one 384-well plate per cell line was prepared for cell counting by microscopy (see below) without receiving treatment (=‘baseline’). The other cell plates were treated by transferring 25 nL of the 2000× compound from drug master plates using an ATS acoustic liquid dispenser (ECD Biosystems) and resulting in a final 1× concentration. COMPOUND A was used over a final concentration range of 13 nM-10 μM, and COMPOUND B was used over a final concentration range of 13 nM-10 μM (7 1:3 dilution steps). For the combination of COMPOUND A with COMPOUND B the single agents were combined at a fixed ratio of 1:1 at each dilution resulting in 7 combination treatments. […] After compound addition 50 nL of 2 mM CellEvent Caspase-3/7 Green Detection Reagent (ThermoFisher, Catalog number C10423) were added to one of the three replicates using the HP D300 Digital Dispenser (Tecan). Caspase 3/7 induction was measured as a proxy for apoptosis induced by the treatments. Cells were treated for 72 h to 96 h depending on their doubling time (Table 1), and Caspase 3/7 activation was measured every 24 h by microscopy using an InCell Analyzer 2000 (GE Healthcare) equipped with a 4× objective and FITC excitation/emission filters. At the end of the treatment cells were prepared for cell counting by microscopy. Cells were fixed and permeabilised for 45 minutes in 4% PFA (Electron Microscopy Sciences, Catalog number 15714), 0.12% TX-100 (Electron Microscopy Sciences, Catalog number 22140) in PBS (Boston Bioproducts, Catalog number BM-220). After washing cells three times with PBS their DNA was stained for 30 minutes with Hoechst 33342 (ThermoFisher, Catalog number H3570) at a final concentration of 4 μg/ml. Cells were washed three times with PBS and then plates were heat-sealed using a PlateLoc (Agilent Technologies) with aluminum seals (Agilent Technologies, Catalog number 06644-001) and stored at 4° C. until imaging. All cells per well/treatment were captured in a single image by fluorescence microscopy using an InCell Analyzer 2000 (GE Healthcare) equipped with a 4× objective and DAPI excitation/emission filters. […]
# [2] = system: COLO-205 colorectal cancer cell line; assay: Cell proliferation, cell count by microscopy; settings: Homo sapiens; single agent; COLO-205 (BRAF); 72 h treatment
# Protocol: as §1, §2, §3, §4
# [3] = system: CW-2 colorectal cancer cell line; assay: Cell proliferation, cell count by microscopy; settings: single agent; CW-2 (no driver mutation listed); 96 h treatment
# Protocol: as §1, §2, §3, §4
# [4] = system: LIM2551 colorectal cancer cell line; assay: Cell proliferation, cell count by microscopy; settings: single agent; LIM2551 (BRAF, PIK3CA); 72 h treatment
# Protocol: as §1, §2, §3, §4
# [5] = system: SW620 colorectal cancer cell line; assay: Cell proliferation, cell count by microscopy; settings: Homo sapiens, SW-620; single agent; SW620 (KRAS); 72 h treatment
# Protocol: as §1, §2, §3, §4
# [6] = system: OUMS-23 colorectal cancer cell line; assay: Cell proliferation, cell count by microscopy; settings: single agent; OUMS-23 (BRAF); 72 h treatment
# Protocol: as §1, §2, §3, §4
# [7] = system: DLD-1 colorectal cancer cell line; assay: Cell proliferation, cell count by microscopy; settings: Homo sapiens; single agent; DLD-1 (KRAS, PIK3CA); 72 h treatment
# Protocol: as §1, §2, §3, §4
# [8] = system: COLO-678 colorectal cancer cell line; assay: Cell proliferation, cell count by microscopy; settings: Homo sapiens; single agent; COLO-678 (KRAS); 96 h treatment
# Protocol: as §1, §2, §3, §4
# [9] = system: GP2d colorectal cancer cell line; assay: Cell proliferation, cell count by microscopy; settings: single agent; GP2d (KRAS, PIK3CA); 72 h treatment
# Protocol: as §1, §2, §3, §4
# [10] = system: CL-11 colorectal cancer cell line; assay: Cell proliferation, cell count by microscopy; settings: single agent; CL-11 (KRAS); 96 h treatment
# Protocol: as §1, §2, §3, §4
# [11] = system: SW837 colorectal cancer cell line; assay: Cell proliferation, cell count by microscopy; settings: Homo sapiens; single agent; SW837 (KRAS); 72 h treatment
# Protocol: as §1, §2, §3, §4
# [12] = system: SW480 colorectal cancer cell line; assay: Cell proliferation, cell count by microscopy; settings: Homo sapiens; single agent; SW480 (KRAS); 72 h treatment
# Protocol: as §1, §2, §3, §4
# [13] = system: LS411N colorectal cancer cell line; assay: Cell proliferation, cell count by microscopy; settings: Homo sapiens, LS-411N; single agent; LS411N (BRAF); 72 h treatment
# Protocol: as §1, §2, §3, §4
# [14] = system: LoVo colorectal cancer cell line; assay: Cell proliferation, cell count by microscopy; settings: Homo sapiens; single agent; LoVo (KRAS); 96 h treatment
# Protocol: as §1, §2, §3, §4
# [15] = system: LS-180 colorectal cancer cell line; assay: Cell proliferation, cell count by microscopy; settings: Homo sapiens, LS180; single agent; LS-180 (KRAS, PIK3CA); 72 h treatment
# Protocol: as §1, §2, §3, §4
# [16] = system: SNU-C2A colorectal cancer cell line; assay: Cell proliferation, cell count by microscopy; settings: single agent; SNU-C2A (KRAS); 96 h treatment
# Protocol: as §1, §2, §3, §4
# [17] = system: NCI-H508 colorectal cancer cell line; assay: Cell proliferation, cell count by microscopy; settings: Homo sapiens; single agent; NCI-H508 (PIK3CA); 72 h treatment
# Protocol: as §1, §2, §3, §4
# [18] = system: HT-29 colorectal cancer cell line; assay: Cell proliferation, cell count by microscopy; settings: Homo sapiens; single agent; HT-29 (BRAF, PIK3CA); 72 h treatment
# Protocol: as §1, §2, §3, §4
# [19] = system: HCT-116 colorectal cancer cell line; assay: Cell proliferation, cell count by microscopy; settings: Homo sapiens; single agent; HCT-116 (KRAS, PIK3CA); 72 h treatment
# Protocol: as §1, §2, §3, §4
# [20] = system: LIM2405 colorectal cancer cell line; assay: Cell proliferation, cell count by microscopy; settings: single agent; LIM2405 (BRAF); 72 h treatment
# Protocol: as §1, §2, §3, §4
# [21] = system: COLO-320 colorectal cancer cell line; assay: Cell proliferation, cell count by microscopy; settings: Homo sapiens; single agent; COLO-320 (no driver mutation listed); 72 h treatment
# Protocol: as §1, §2, §3, §4
# [22] = system: SW48 colorectal cancer cell line; assay: Cell proliferation, cell count by microscopy; settings: Homo sapiens; single agent; SW48 (MEK1); 96 h treatment
# Protocol: as §1, §2, §3, §4
# [23] = system: HT55 colorectal cancer cell line; assay: Cell proliferation, cell count by microscopy; settings: Homo sapiens; single agent; HT55 (no driver mutation listed); 96 h treatment
# Protocol: as §1, §2, §3, §4
# [24] = system: 23 colorectal cancer cell lines; assay: Cell proliferation over the panel of cell lines; settings: single agent; for IC50 values over the cell line panel: summary in words of FIG. 1 and Table 2
# Protocol: as §1, §2, §3
# To test the effect of the combination of COMPOUND A and COMPOUND B on cell proliferation cells were plated in black 384-well microplates with clear bottom (Matrix/Thermo Scientific, Catalog number 4332) in 50 μL media per well at cell densities between 500 and 1250 cells/well (Table 1) and allowed to incubate at 37 degrees, 5% CO2 for 24 h. […] Caspase 3/7 induction was measured as a proxy for apoptosis induced by the treatments. Cells were treated for 72 h to 96 h depending on their doubling time (Table 1), and Caspase 3/7 activation was measured every 24 h by microscopy using an InCell Analyzer 2000 (GE Healthcare) equipped with a 4× objective and FITC excitation/emission filters. […]
Compound,IC50 [1] [µM],IC50 [2] [µM],IC50 [3] [µM],IC50 [4] [nM],IC50 [5] [µM],IC50 [6] [µM],IC50 [7] [µM],IC50 [8] [µM],IC50 [9] [nM],IC50 [10] [µM],IC50 [11] [µM],IC50 [12] [µM],IC50 [13] [nM],IC50 [14] [µM],IC50 [15] [µM],IC50 [16] [µM],IC50 [17] [nM],IC50 [18] [nM],IC50 [19] [µM],IC50 [20] [µM],also measured
"NC1(c2ccc(-c3nc4ccn5c(=O)[nH]nc5c4cc3-c3ccccc3)cc2)CCC1 [COMPOUND B, 8-[4-(1-Aminocyclobutyl)phenyl]-9-phenyl-1,2,4-triazolo[3,4-f][1,6]naphthyridin-3(2H)-one, reference compound]",3.9,5.4,6.4,1400,> 10,> 10,> 10,> 10,600,> 10,> 10,> 10,3000,0.1,> 10,> 10,1500,3800,> 10,> 10,IC50 [21]: 5.1 µM; IC50 [22]: > 10 µM; IC50 [23]: 1000 nM; IC50 values over the cell line panel [24]: micromolar
"Cc1nc(NC(=O)N2CCC[C@H]2C(N)=O)sc1-c1ccnc(C(C)(C)C(F)(F)F)c1 [COMPOUND A, (S)-Pyrrolidine-1,2-dicarboxylic acid 2-amide 1-({4-methyl-5-[2-(2,2,2-trifluoro-1,1-dimethyl-ethyl)-pyridin-4-yl]-thiazol-2-yl}-amide)]",2.6,> 10,> 10,1400,> 10,> 10,> 10,> 10,300,3.2,9.3,> 10,> 10000,7.5,7.1,> 10,1300,1900,6.9,> 10,IC50 [21]: 7.3 µM; IC50 [22]: 3.2 µM; IC50 [23]: 1100 nM; growth inhibition of PIK3CA mutant cell lines compared to PIK3CA wild type cell lines ([24]; one-tailed t-test on normalized cell counts (FIG. 3)): significantly stronger; IC50 values over the cell line panel [24]: micromolar
